According to patent publication US9926281B2 (priority 2014, dated 2018):
pIC50: −log10 of the molar value. Read-outs that look alike come from different tables or passages of the source.

Key:
rnADAMTS-5 (1-564-6H) = rnADAMTS-5 (1-564-6H) (Rattus norvegicus, UniProt Q6TY19); conditions: read-out: Rat ADAMTS-5 potency IC50
human ADAMTS-5 [1] = target: T1, human ADAMTS-5 (Homo sapiens (Human), UniProt Q9UNA0); conditions: read-out: hADAMTS-5 potency IC50
human TACE = human TACE (Homo sapiens (Human), UniProt P78536); conditions: read-out: TACE potency IC50
human ADAMTS-5 [2] = target: T1, human ADAMTS-5; conditions: read-out: hADAMTS-5 potency IC50; remark: listed apart in the source
Method: Finally, the fluorescence is read on the Envision (Perkin Elmer) after an incubation of 90 min at 37° C.

human MMP13 = human MMP13 (Homo sapiens (Human), UniProt P45452); conditions: read-out: hMMP-13 potency IC50
Method: Human MMP13 is preactivated by incubated the enzyme in the same buffer complemented with 1 mM freshly prepared p-Aminophenylmercuric acetate (AMPA) for 1 hour at 37° C.

human TACE, sequence (P78536 whole entry, looked up, change not shown): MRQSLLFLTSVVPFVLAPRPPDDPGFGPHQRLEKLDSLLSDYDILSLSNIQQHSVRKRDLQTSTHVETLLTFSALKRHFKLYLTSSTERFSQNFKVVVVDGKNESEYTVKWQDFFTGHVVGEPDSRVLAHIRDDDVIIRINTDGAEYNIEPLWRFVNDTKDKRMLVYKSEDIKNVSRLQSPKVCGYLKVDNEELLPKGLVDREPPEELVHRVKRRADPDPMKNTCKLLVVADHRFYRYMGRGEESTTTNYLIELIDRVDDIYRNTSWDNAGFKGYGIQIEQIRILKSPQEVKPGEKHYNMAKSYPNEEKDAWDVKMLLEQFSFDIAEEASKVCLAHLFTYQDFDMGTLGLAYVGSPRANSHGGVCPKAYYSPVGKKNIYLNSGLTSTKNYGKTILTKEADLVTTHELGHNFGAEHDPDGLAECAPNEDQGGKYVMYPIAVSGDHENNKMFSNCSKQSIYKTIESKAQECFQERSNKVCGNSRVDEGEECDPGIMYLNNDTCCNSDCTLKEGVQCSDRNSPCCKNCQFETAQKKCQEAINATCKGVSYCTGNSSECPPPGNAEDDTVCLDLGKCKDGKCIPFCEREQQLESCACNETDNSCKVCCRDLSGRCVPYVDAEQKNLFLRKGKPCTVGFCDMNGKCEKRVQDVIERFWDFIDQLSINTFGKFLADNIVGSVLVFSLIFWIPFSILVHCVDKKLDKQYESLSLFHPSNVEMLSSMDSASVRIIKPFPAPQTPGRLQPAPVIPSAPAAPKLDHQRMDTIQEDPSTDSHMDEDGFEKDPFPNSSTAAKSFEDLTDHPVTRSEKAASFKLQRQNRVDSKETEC
T1 sequence (Q9UNA0 262-930): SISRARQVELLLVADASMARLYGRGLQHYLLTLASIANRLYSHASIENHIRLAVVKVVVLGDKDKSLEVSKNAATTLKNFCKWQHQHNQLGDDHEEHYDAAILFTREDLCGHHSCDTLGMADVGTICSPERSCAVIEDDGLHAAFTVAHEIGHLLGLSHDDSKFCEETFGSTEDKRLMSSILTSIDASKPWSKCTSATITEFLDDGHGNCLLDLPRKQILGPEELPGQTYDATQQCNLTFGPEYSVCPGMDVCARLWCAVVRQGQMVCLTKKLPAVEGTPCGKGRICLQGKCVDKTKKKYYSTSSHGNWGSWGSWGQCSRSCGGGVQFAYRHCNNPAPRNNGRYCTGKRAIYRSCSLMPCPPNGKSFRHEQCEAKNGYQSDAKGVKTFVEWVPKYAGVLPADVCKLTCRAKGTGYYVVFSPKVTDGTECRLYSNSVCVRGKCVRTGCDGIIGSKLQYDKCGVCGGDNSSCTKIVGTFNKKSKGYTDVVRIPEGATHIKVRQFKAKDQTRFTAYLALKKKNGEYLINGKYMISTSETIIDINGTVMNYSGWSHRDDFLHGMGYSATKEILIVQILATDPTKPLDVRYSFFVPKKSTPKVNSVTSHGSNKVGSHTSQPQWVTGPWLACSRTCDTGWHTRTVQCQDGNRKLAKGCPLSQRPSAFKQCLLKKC

Structure (SMILES)	pIC50 (rnADAMTS-5 (1-564-6H))	pIC50 (human ADAMTS-5 [1])	pIC50 (human TACE)	pIC50 (human ADAMTS-5 [2])	pIC50 (human MMP13)
O=C1NC(=O)C(CCC(=O)N2CCN(c3ccc4ccccc4n3)CC2)(c2ccccc2)N1 (centres unmarked) [compound 15, 5-[3-oxo-3-[4-(2-quinolyl)piperazin-1-yl]propyl]-5-phenyl-imidazolidine-2,4-dione]	< 5.40	< 5.40			
Cc1cccc(C)c1N1CCN(C(=O)CCC2(c3ccccc3)NC(=O)NC2=O)CC1 (centres unmarked) [compound 22, 5-[3-[4-(2,6-dimethylphenyl)piperazin-1-yl]-3-oxo-propyl]-5-phenyl-imidazolidine-2,4-dione]	5.41	< 5.42			
Cc1cc(N2CCN(C(=O)CCC3(c4ccccc4)NC(=O)NC3=O)CC2)ccc1[N+](=O)[O-] (centres unmarked) [compound 23, 5-[3-[4-(3-methyl-4-nitro-phenyl)piperazin-1-yl]-3-oxo-propyl]-5-phenyl-imidazolidine-2,4-dione]	6.80	6.80			
O=C1NC(=O)C(CCC(=O)N2CCN(c3ccc4occc4c3)CC2)(c2ccccc2)N1 (centres unmarked) [compound 25, 5-[3-[4-(benzofuran-5-yl)piperazin-1-yl]-3-oxo-propyl]-5-phenyl-imidazolidine-2,4-dione]		6.86	< 5.70		
O=C1NC(=O)C(CCC(=O)N2CCN(c3ccc4scnc4c3)CC2)(c2ccccc2)N1 (centres unmarked) [compound 26, 5-[3-[4-(1,3-benzothiazol-5-yl)piperazin-1-yl]-3-oxo-propyl]-5-phenyl-imidazolidine-2,4-dione]		6.15	< 5.00		
CC1(CCC(=O)N2CCN(c3ccccc3C#N)CC2)NC(=O)NC1=O (centres unmarked) [compound 29]		< 4.92		< 5.40	
CC1(CCC(=O)N2CCN(c3ccccc3F)CC2)NC(=O)NC1=O (centres unmarked) [compound 30, 5-[3-[4-(2-fluorophenyl)piperazin-1-yl]-3-oxo-propyl]-5-methyl-imidazolidine-2,4-dione]		< 5.40		< 5.40	
Cc1ccccc1N1CCN(C(=O)CCC2(C(C)C)NC(=O)NC2=O)CC1 (centres unmarked) [compound 32, 5-isopropyl-5-[3-[4-(o-tolyl)piperazin-1-yl]-3-oxo-propyl]imidazolidine-2,4-dione]		6.41	< 5.40		
CC1(CCC(=O)N2CCN(c3ccc(F)c(F)c3)CC2)NC(=O)NC1=O (centres unmarked) [compound 37, 5-[3-[4-(3,4-difluorophenyl)piperazin-1-yl]-3-oxo-propyl]-5-methyl-imidazolidine-2,4-dione]		6.64	< 4.70		
Cc1ccc(C)c(N2CCN(C(=O)CCC3(C)NC(=O)NC3=O)CC2)c1 (centres unmarked) [compound 39, 5-[3-[4-(2,5-dimethylphenyl)piperazin-1-yl]-3-oxo-propyl]-5-methyl-imidazolidine-2,4-dione]		6.24	6.23		
CC1(CCC(=O)N2CCN(c3cccnc3)CC2)NC(=O)NC1=O (centres unmarked) [compound 43, 5-methyl-5-[3-oxo-3-[4-(3-pyridyl)piperazin-1-yl]propyl]imidazolidine-2,4-dione]		5.82	< 4.70		< 4.70
O=C1NC(=O)C(CCC(=O)N2CCN(c3cccnc3)CC2)(c2ccccc2)N1 (centres unmarked) [compound 45, 5-[3-oxo-3-[4-(3-pyridyl)piperazin-1-yl]propyl]-5-phenyl-imidazolidine-2,4-dione]		6.69	< 4.70		
CC1(CCC(=O)N2CCN(c3ccc(F)c(Cl)c3)CC2)NC(=O)NC1=O (centres unmarked) [compound 52, 5-[3-[4-(3-chloro-4-fluoro-phenyl)piperazin-1-yl]-3-oxo-propyl]-5-methyl-imidazolidine-2,4-dione]		6.55	< 4.70		
Cc1c(F)cccc1N1CCN(C(=O)CCC2(C)NC(=O)NC2=O)CC1 (centres unmarked) [compound 60, 5-[3-[4-(3-fluoro-2-methyl-phenyl)piperazin-1-yl]-3-oxo-propyl]-5-methyl-imidazolidine-2,4-dione]		5.94	< 4.70		< 4.70
CC1CN(C(=O)CCC2(c3ccccc3)NC(=O)NC2=O)CCN1c1ccccc1 (centres unmarked) [compound 62, 5-[3-(3-methyl-4-phenyl-piperazin-1-yl)-3-oxo-propyl]-5-phenyl-imidazolidine-2,4-dione]		6.53	< 4.70		
CC1CN(C(=O)CCC2(C)NC(=O)NC2=O)CCN1c1ccccc1 (centres unmarked) [compound 63, 5-methyl-5-[3-(3-methyl-4-phenyl-piperazin-1-yl)-3-oxo-propyl]imidazolidine-2,4-dione]		5.91	< 4.70		
CC1(CCC(=O)N2CCN(c3ccc(Cl)c(Cl)c3)CC2)NC(=O)NC1=O (centres unmarked) [compound 67, 5-[3-[4-(3,4-dichlorophenyl)piperazin-1-yl]-3-oxo-propyl]-5-methyl-imidazolidine-2,4-dione]		6.82	< 5.40		< 5.46

Structure (SMILES)	pIC50 (rnADAMTS-5 (1-564-6H))	pIC50 (human ADAMTS-5 [1])	pIC50 (human TACE)	pIC50 (human ADAMTS-5 [2])	pIC50 (human MMP13)
O=C1NC(=O)C(CCC(=O)N2CCN(c3ccccc3)CC2)(c2cccnc2)N1 (centres unmarked) [compound 68, 5-[3-oxo-3-(4-phenylpiperazin-1-yl)propyl]-5-(3-pyridyl)imidazolidine-2,4-dione]	6.70	6.77			
Cc1cccc(N2CCN(C(=O)CCC3(c4cccnc4)NC(=O)NC3=O)CC2)c1C (centres unmarked) [compound 69, 5-[3-[4-(2,3-dimethylphenyl)piperazin-1-yl]-3-oxo-propyl]-5-(3-pyridyl)imidazolidine-2,4-dione]	6.73	6.75			
CC1(CCC(=O)N2CCN(c3cc(F)cc(Cl)c3)CC2)NC(=O)NC1=O (centres unmarked) [compound 117, 5-[3-[4-(3-chloro-5-fluoro-phenyl)piperazin-1-yl]-3-oxo-propyl]-5-methyl-imidazolidine-2,4-dione]		6.68	< 5.40		< 5.40
COc1cccc(C2(CCC(=O)N3CCN(c4cccc(Cl)c4)CC3)NC(=O)NC2=O)c1 (centres unmarked) [compound 123, 5-[3-[4-(3-chlorophenyl)piperazin-1-yl]-3-oxo-propyl]-5-(3-methoxyphenyl)imidazolidine-2,4-dione]		7.02	5.79		6.04
N#Cc1ccc(C2(CCC(=O)N3CCN(c4cccc(Cl)c4)CC3)NC(=O)NC2=O)cc1 (centres unmarked) [compound 125, 4-[4-[3-[4-(3-chlorophenyl)piperazin-1-yl]-3-oxo-propyl]-2,5-dioxo-imidazolidin-4-yl]benzonitrile]		7.28	5.74		5.67
CC1CN(C(=O)CCC2(c3cccnc3)NC(=O)NC2=O)CCN1c1ccc(Cl)cc1 (centres unmarked) [compound 126, 5-[3-[4-(4-chlorophenyl)-3-methyl-piperazin-1-yl]-3-oxo-propyl]-5-(3-pyridyl)imidazolidine-2,4-dione]		6.97	< 5.40		< 5.40
C[C@@H]1CN(C(=O)CCC2(C3CC3)NC(=O)NC2=O)CCN1c1ccccc1 (stereo partly drawn) [compound 128, 5-cyclopropyl-5-[3-[(3R)-3-methyl-4-phenyl-piperazin-1-yl]-3-oxo-propyl]imidazolidine-2,4-dione]		5.93	< 4.70		< 4.70
Cc1ccc(F)cc1N1CCN(C(=O)CCC2(C3CC3)NC(=O)NC2=O)CC1C (centres unmarked) [compound 129, 5-cyclopropyl-5-[3-[4-(5-fluoro-2-methyl-phenyl)-3-methyl-piperazin-1-yl]-3-oxo-propyl]imidazolidine-2,4-dione]		6.82	< 5.40		< 4.70
CC1CN(C(=O)CCC2(C3CC3)NC(=O)NC2=O)CCN1c1cc(Cl)cc(Cl)c1 (centres unmarked) [compound 130, 5-cyclopropyl-5-[3-[4-(3,5-dichlorophenyl)-3-methyl-piperazin-1-yl]-3-oxo-propyl]imidazolidine-2,4-dione]		6.90	< 5.40		< 4.70
COc1ccc(Cl)cc1C1(CCC(=O)N2CCN(c3cccc(Cl)c3)CC2)NC(=O)NC1=O (centres unmarked) [compound 132, 5-(5-chloro-2-methoxy-phenyl)-5-[3-[4-(3-chlorophenyl)piperazin-1-yl]-3-oxo-propyl]imidazolidine-2,4-dione]		7.43	6.46		5.48
COc1ccc(Cl)cc1C1(CCC(=O)N2CCN(c3cc(Cl)ccc3C)CC2)NC(=O)NC1=O (centres unmarked) [compound 133, 5-(5-chloro-2-methoxy-phenyl)-5-[3-[4-(5-chloro-2-methyl-phenyl)piperazin-1-yl]-3-oxo-propyl]imidazolidine-2,4-dione]		6.97	6.71		< 4.70
C[C@@H]1CN(C(=O)CCC2(c3cccnc3)NC(=O)NC2=O)CCN1c1ccccc1 (stereo partly drawn) [compound 134, 5-[3-[(3R)-3-methyl-4-phenyl-piperazin-1-yl]-3-oxo-propyl]-5-(3-pyridyl)imidazolidine-2,4-dione]		5.73	< 4.70		< 4.70
Cc1c(Cl)cc(Cl)cc1N1CCN(C(=O)CCC2(C)NC(=O)NC2=O)CC1 (centres unmarked) [compound 139, 5-[3-[4-(3,5-dichloro-2-methyl-phenyl)piperazin-1-yl]-3-oxo-propyl]-5-methyl-imidazolidine-2,4-dione]		6.64	5.88		< 4.70
Cc1cccc(C2(CCC(=O)N3CCN(c4cccc(Cl)c4)CC3)NC(=O)NC2=O)c1 (centres unmarked) [compound 141, 5-[3-[4-(3-chlorophenyl)piperazin-1-yl]-3-oxo-propyl]-5-(m-tolyl)imidazolidine-2,4-dione]		6.92			
CC1CN(C(=O)CCC2(C3CC3)NC(=O)NC2=O)CCN1c1cccc(F)c1 (centres unmarked) [compound 149, 5-cyclopropyl-5-[3-[4-(3-fluorophenyl)-3-methyl-piperazin-1-yl]-3-oxo-propyl]imidazolidine-2,4-dione]		7.10			
CC1CN(C(=O)CCC2(C3CC3)NC(=O)NC2=O)CCN1c1cccc(Cl)c1 (centres unmarked) [compound 150, 5-[3-[4-(3-chlorophenyl)-3-methyl-piperazin-1-yl]-3-oxo-propyl]-5-cyclopropyl-imidazolidine-2,4-dione]		7.02			
